Measured values: publication PMC9560627, “Targeting Echinococcus multilocularis PIM kinase for improving anti-parasitic chemotherapy” (PLoS Neglected Tropical Diseases, 2022)
Where two headings read alike, the source gives them in different places.

Columns and labels:
E. multilocularis MV = assay: Mature metacestode vesicle (MV) assay, structural integrity by microscopy; assay type: cell-based, Echinococcus multilocularis; settings: for structural vesicle damage of MV (screen of 20 in silico compounds): 3 and 10 μM
Protocol: In mature MV assays, 10 individual MV each were cultured in 2 ml of conditioned medium (100% A6 medium) in the presence of inhibitors in 12 well plates under axenic conditions for 28 d as described in [39]. […] Structural integrity of MV was assessed using an optical microscope (Nikon eclipse Ts2-FL). Experimental set-up and execution of inhibitor studies and structural integrity assessment was performed by independent experimenters. Criteria for intact or damaged vesicles were essentially as previously described. All experiments were performed using 3 biological replicates. Percentages of structurally intact vesicles were statistically analyzed with one-way ANOVA with Dunnet’s multiple comparison tests in Graphpad prism 9.3.1(Graphpad software).

E. multilocularis PC [1] = assay: Vesicle formation assay (MV formation from PC); assay type: cell-based, Echinococcus multilocularis
Protocol: In vesicle formation assays, PC were isolated as described above and 100 U of isolated PC (~1.5×10^4 cells/well) were seeded in 96 well plates with 200 μl of conditioned medium (50% A6 medium + 50% B4 medium) for 21 d under nitrogen atmosphere. The number of newly formed vesicles was counted using an optical microscope (Nikon eclipse Ts2-FL) essentially as previously described. Kruskal-Wallis test followed by Dunn’s multiple comparisons test was used in GraphPad Prism version 9.3.1(Graphpad software) to analyze the difference of vesicle numbers in control and treatment groups. In this analysis, all concentrations were compared with the negative control DMSO. Experiments with SGI-1776 and CX-6258 were performed in three biological and technical replicates. Experiments with SGI-1776 and Z196138710 were performed in three technical replicates.

FLT3 = settings: cited from earlier work
haspin = settings: cited from earlier work
human Pim-3 = settings: cited from earlier work
human Pim-2 = settings: cited from earlier work
HEK293T cells = assay: Mammalian cell toxicity, Cell Titer Glo 2.0 viability; assay type: cell-based, human; settings: for IC50: read-out: IC50 against HEK293T cells
Protocol: (§1) The toxicity of inhibitors against mammalian cells was evaluated by treatment of the commonly used cell lines HEK293T [42] and HepG2 [43], which were cultivated and passaged as described in [43, 44]. […] 24 h after seeding, 50 μl of DMEM+GlutaMAX-I including FBS and inhibitors were added. Final concentrations of inhibitors were adjusted to 0–30 μM as indicated, DMSO alone was used as a control. Plates were incubated for 3 d under aerobic conditions and cell viability was measured using the Cell Titer Glo 2.0 system (Promega) according to the manufacturer’s instructions. Luminescence was measured by a Spectramax iD3 Multi-mode Microplate reader (Molecular Devices). Three independent experiments with three technical replicates were carried out for both cell lines. Luminescence units were normalized to the DMSO control of each independent experiment and expressed as percentage of luminescence unit. One-Way-ANOVA test followed by Tukey’s multiple comparisons test was used in GraphPad Prism version 9.3.1 (Graphpad software) for statistical analysis. Based on the cell viability data, dose-response curves were drawn and IC50 (best fit value) were calculated using GraphPad Prism version 9.3.1 (Graphpad software).

HepG2 cells = assay: as above; assay type: cell-based, human; settings: for IC50: read-out: IC50 against HepG2 cells
Protocol: as §1

human Pim-1 = settings: cited from earlier work
E. multilocularis = tested on: E. multilocularis; parameters: method as in PMID 26389799; settings: cited from earlier work
E. multilocularis PC [2] = assay: Cell viability assay (Cell Titer Glo 2.0) on E. multilocularis primary cell cultures (PC), initial kinase inhibitor screen; assay type: cell-based, Echinococcus multilocularis; settings: for inhibition at 10 µM: Echinococcus multilocularis, read-out: growth inhibition of Echinococcus PC
Echinococcus = settings: ref PMID:9593125; cited from earlier work
[3] = tested on: a broad variety of other cell types, including chronic lymphocytic leukemia cells; parameters: method as in PMID 22052829, PMID 19734450; settings: read-out: in vitro IC50 against a broad variety of other cell types; cited from earlier work
solid tumour xenografts = tested on: solid tumour xenografts; parameters: method as in PMID 22052829, PMID 25589932; settings: mice, plasma concentrations around 3 μM free compound; cited from earlier work
[4] = cited from earlier work
[5] = parameters: method as in PMID 30370255; settings: non-Hodgkin lymphoma and prostate cancer; cited from earlier work
[6] = tested on: human Ether-á-go-go-related (hERG) cardiac ion channel; settings: cited from earlier work
[7] = response to reviewers, ref literature, not numbered at the place

## Cc1noc(C)c1COc1cccc(C(=O)N2CCC(C(N)=O)CC2)c1 [Z30898879]
E. multilocularis MV; 28 d
  structural vesicle damage of MV (screen of 20 in silico compounds): highly effective in inducing structural vesicle damage

## CN1CCCN(C(=O)c2cccc(-c3ccc(/C=C4/C(=O)Nc5ccc(Cl)cc54)o3)c2)CC1 [CX-6258]
E. multilocularis PC [1]; 3 μM, 21 d
  MV formation from stem cells (PC): drastically affected MV formation
E. multilocularis PC [1]; concentrations higher than 3 μM, 21 d
  MV formation from stem cells (PC): completely inhibited MV development
FLT3; read-out: IC50 FLT3
  IC50: 134 nM
haspin; melanoma cell lines
  activity against haspin kinase: […]
Human Pim-3; read-out: IC50 Pim-3
  IC50: 16 nM
E. multilocularis MV; 3 μM, 28 d
  effect on structural integrity of mature MV: did not lead to statistically significant effects
E. multilocularis MV; 10 μM, 28 d
  effect on structural integrity of mature MV: drastic loss of structural integrity of all
Human Pim-2; read-out: IC50 Pim-2
  IC50: 25 nM
HEK293T cells; 30 and 10 μM, 3 d
  effect on HEK293T cells: fully eliminated
HEK293T cells; 3 d, cell viability
  IC50: […]
HepG2 cells; 30 and 10 μM, 3 d
  effect on HepG2 cells: fully eliminated
HepG2 cells; 3 d, cell viability
  IC50: […]
Human Pim-1; read-out: IC50 Pim-1
  IC50: […]

## CN(C)C(=O)CN1CCN(Cc2nc3scc(-c4ccccc4Cl)c3c(=O)[nH]2)CC1 [Z65225039]
E. multilocularis MV; 28 d
  structural vesicle damage of MV (screen of 20 in silico compounds): highly effective in inducing structural vesicle damage

## COc1cc(CNc2ncnc3ccsc23)ccc1OC(F)F [Z196138710, N-(4-(difluoromethoxy)-3-methoxybenzyl)-thieno-[3,2-d]-pyrimidin-4-amine]
E. multilocularis PC [1]
  concentration effective against the parasite, stem cell cultures: 3 µM
E. multilocularis PC [1]; 10 μM, 21 d
  MV formation from stem cells (PC): completely prevented MV formation
E. multilocularis PC [1]; different concentrations, 21 d
  MV development from primary cells, comparison with SGI-1776: effects similar to those of SGI-1776
E. multilocularis MV
  concentration effective against the parasite, mature MV: 10 µM
E. multilocularis MV; 10 μM, 28 d
  structural disintegration of MV: 100%
E. multilocularis MV; 28 d
  structural vesicle damage of MV (screen of 20 in silico compounds): highly effective in inducing structural vesicle damage
HEK293T cells; 30 and 10 μM, 3 d
  inhibition of HEK293T cells: 40–60%
HEK293T cells; Homo sapiens, HEK-293T, 72 h, 3 d, cell viability
  IC50: 11000 nM
HepG2 cells; 30 and 10 μM, 3 d
  inhibition of HepG2 cells: 40–60%
HepG2 cells; Homo sapiens, HepG2, 72 h, 3 d, cell viability
  IC50: 16000 nM

## CCCSc1ccc2nc(NC(=O)OC)[nH]c2c1 [albendazole]
E. multilocularis
  efficacy against the parasite in AE patients: effective against the parasite in only one third of cases

## CCC1CN(Cc2nc3cc(OC)c(OC)cc3c(=O)[nH]2)CCO1 (stereo not drawn) [Z354576500]
E. multilocularis MV; 28 d
  structural vesicle damage of MV (screen of 20 in silico compounds): highly effective in inducing structural vesicle damage

## Cc1nc(Nc2ncc(C(=O)Nc3c(C)cccc3Cl)s2)cc(N2CCN(CCO)CC2)n1 [Dasatinib]
E. multilocularis PC [2]; 10 μM, 3 d and 7 d
  effect on parasite PC proliferation: stimulated parasite cell proliferation

## COC(=O)Nc1nc2ccc(C(=O)c3ccccc3)cc2[nH]1 [mebendazole]
E. multilocularis
  efficacy against the parasite in AE patients: effective against the parasite in only one third of cases
Echinococcus
  in vitro active concentrations: 1 to 10 µM

## CN1CCC(CNc2ccc3ncc(-c4cccc(OC(F)(F)F)c4)n3n2)CC1 [SGI-1776]
E. multilocularis PC [1]; 3 μM, 21 d
  MV formation from stem cells (PC): did not lead to statistically significant effects
E. multilocularis PC [1]; 10 μM, 21 d
  MV formation from stem cells (PC): almost completely
E. multilocularis PC [1]; 30 μM, 21 d
  MV formation from stem cells (PC): completely prevented
E. multilocularis PC [2]; 72 h
  inhibition at 10 µM: ~60%
E. multilocularis PC [2]; 168 h
  inhibition at 10 µM: ~80%
FLT3; read-out: IC50 against FLT3
  IC50: 44 nM
haspin; read-out: IC50 against haspin
  IC50: 34 nM
[3]
  IC50: […]
Human Pim-3; read-out: IC50 against human Pim-3
  IC50: 69 nM
Solid tumour xenografts
  efficacy against solid tumour xenografts: effective against solid tumour xenografts in mice
[4]; in vivo application in mice
  compound bound to plasma proteins: around 95%
[4]; mice
  well tolerated plasma concentration of free compound (not bound to plasma proteins): […]
[4]; [7]
  drug bound to human plasma protein: about 95%
E. multilocularis MV; 3 μM, 28 d
  effect on structural integrity of mature MV: did not lead to statistically significant effects
E. multilocularis MV; 10 μM, 28 d
  effect on structural integrity of mature MV: almost all
[5]
  toxicity in clinical phase I trials: toxicity in cardiac electric cycle prolongation
Human Pim-2; read-out: IC50 against human Pim-2
  IC50: 363 nM
HEK293T cells; 30 and 10 μM, 3 d
  effect on HEK293T cells: fully eliminated
HEK293T cells; Homo sapiens, HEK-293T, 72 h
  IC50: ~1000 nM
HepG2 cells; 30 and 10 μM, 3 d
  effect on HepG2 cells: fully eliminated
HepG2 cells; Homo sapiens, HepG2, 72 h
  IC50: ~1000 nM
Human Pim-1; read-out: IC50 against human Pim-1
  IC50: […]
[6]
  cause of toxicity in clinical trials: hERG: off-target effects
